Results as given in patent US20170057955A1, “Pyridopyrimidinone Compounds for Modulating the Catalytic Activity of Histone Lysine Demethylases (KDMs)” (Dong-A Socio Holdings Co., Ltd., priority 2015, published 2017).

molecular target: T1, Recombinant human JARID1B/KDM5B (Homo sapiens, UniProt Q9UGL1); experiment: LANCE Ultra TR-FRET JARID1B (KDM5B) demethylase inhibition assay; assay type: biochemical; settings: 0.1 uM of test-compounds, FLAG-JARID1B, 500 nM biotinylated H3K4me3 peptide substrate, 30 min at room temperature
T1 construct: purchased Active Motif 31432; host or cells: Sf9 insect cells
T1 sequence (Q9UGL1 whole entry): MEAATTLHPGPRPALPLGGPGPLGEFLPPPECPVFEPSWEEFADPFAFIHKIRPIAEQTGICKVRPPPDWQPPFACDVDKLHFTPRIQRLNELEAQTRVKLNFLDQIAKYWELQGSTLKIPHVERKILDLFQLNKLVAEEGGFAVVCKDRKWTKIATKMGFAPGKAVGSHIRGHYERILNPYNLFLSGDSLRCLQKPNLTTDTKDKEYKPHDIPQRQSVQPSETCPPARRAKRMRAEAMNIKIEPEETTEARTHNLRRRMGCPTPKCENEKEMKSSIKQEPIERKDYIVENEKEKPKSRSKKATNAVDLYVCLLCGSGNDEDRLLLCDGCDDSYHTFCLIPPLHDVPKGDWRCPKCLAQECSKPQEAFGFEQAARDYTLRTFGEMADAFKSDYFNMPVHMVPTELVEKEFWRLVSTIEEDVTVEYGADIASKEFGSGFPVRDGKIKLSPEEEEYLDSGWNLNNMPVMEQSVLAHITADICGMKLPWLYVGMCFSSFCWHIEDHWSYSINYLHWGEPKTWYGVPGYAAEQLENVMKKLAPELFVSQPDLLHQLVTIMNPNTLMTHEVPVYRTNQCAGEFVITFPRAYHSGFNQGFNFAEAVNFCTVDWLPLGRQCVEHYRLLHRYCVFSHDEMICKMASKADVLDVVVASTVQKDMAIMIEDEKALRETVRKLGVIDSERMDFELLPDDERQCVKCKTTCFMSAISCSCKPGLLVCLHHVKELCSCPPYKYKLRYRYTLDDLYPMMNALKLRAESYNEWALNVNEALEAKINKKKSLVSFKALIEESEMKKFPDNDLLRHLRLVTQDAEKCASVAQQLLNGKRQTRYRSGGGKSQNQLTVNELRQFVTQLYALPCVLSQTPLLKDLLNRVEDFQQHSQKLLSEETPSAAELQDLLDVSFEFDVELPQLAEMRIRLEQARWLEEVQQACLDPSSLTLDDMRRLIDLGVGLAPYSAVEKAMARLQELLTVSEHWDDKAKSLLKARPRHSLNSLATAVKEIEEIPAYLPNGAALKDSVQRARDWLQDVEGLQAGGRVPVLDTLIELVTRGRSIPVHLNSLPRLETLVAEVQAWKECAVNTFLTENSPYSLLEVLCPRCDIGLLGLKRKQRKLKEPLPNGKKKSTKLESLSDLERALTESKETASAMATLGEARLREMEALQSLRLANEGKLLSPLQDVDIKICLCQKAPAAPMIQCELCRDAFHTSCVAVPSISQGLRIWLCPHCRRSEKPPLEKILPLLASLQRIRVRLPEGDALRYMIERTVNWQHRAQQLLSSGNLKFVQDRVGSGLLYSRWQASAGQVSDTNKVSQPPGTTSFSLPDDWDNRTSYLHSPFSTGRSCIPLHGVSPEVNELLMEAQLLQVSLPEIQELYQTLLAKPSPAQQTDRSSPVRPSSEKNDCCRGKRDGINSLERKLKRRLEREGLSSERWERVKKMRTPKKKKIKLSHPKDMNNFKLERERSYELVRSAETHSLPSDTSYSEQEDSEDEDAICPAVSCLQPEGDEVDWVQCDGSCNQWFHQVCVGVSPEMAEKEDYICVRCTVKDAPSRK
Excerpt: FLAG-tagged JARID1B (also known as KDM5B) protein was screened against 49 compounds. For this compound screening, LANCE Ultra time-resolved fluorescence resonance energy transfer (TR-FRET) assay was employed using a europoium (Eu)-labeled antibody that can specifically recognize mono- or dimethylated peptides (H3K4me2/1) and ULight-streptavidin (ULight-SA), a small molecule fluorescent dye. When irradiated at 340 nm, the energy from the Eu donor is transferred to the ULight acceptor dye which, in turn, emits light primarily at 665 nm. The ratio between the intensity of primary emission at 665 nm and that of secondary emission at […] was used to quantify the level of lysine methylation. As JARID1B removes more methyl moieties from tri-methylated substrate peptides (H3K4me3), the ratio increases until the enzyme reaction is terminated. In case, therefore, the compounds disrupt the enzymatic activity completely, the ratio becomes equal to a background value.
Recombinant human JARID1B/KDM5B (accession number NP_006609) of molecular weight 179.9 KDa was expressed in Sf9 insect cells and contains an N-terminal FLAG tag. The enzyme was obtained from Active Motif (Catalog No. 31432). The tri-methylated histone substrate peptide of purity greater than 95% was a synthetic peptide in which the first 21 amino acids correspond to the human histone H3 sequence with three extra amino acids and a biotin motif (GGK-biotin) linked to the C-terminus [sequence: ART-K(Me3)-QTARKSTGGKAPRKQLA-GGK-biotin-OH], (AnaSpec, Fremont, Calif. Catalog. No. ANA-1413). The reference inhibitor compound tranylcypromine (or trans-2-phenylcyclopropylamine hydrochloride, also known as, 2-PCPA) was purchased from Sigma (St. Louis, Mo. Cat. no. P8511). ULight-labeled streptavidin (ULight-SA, Catalog no. TRF0102), Eu-W1024-labeled anti-methyl-Histone H3 Lysine 4 (H3K4me1-2) Antibody (Catalog no. TRF0402), and LANCE detection buffer 10× (Catalog no. CR97-100) were obtained from PerkinElmer (Montreal, Quebec, Canada). The TR-FRET experiments were carried out in white, low-volume 384-wellplates purchased from PerkinElmer (ProxiPlate_-384 Plus, Catalog no. 6008280).
The TR-FRET signal was measured in the presence both of the bio-H3K4me3 peptide and FLAG-JARID1B by detecting any H3K4me2/1 peptide produced in the assay system. Assays using only the bio-H3K4me2 peptide were served as a positive control. Robust enzymatic progressions were observed by using JARID1B at concentrations ranging from 10 to 30 nM. In a typical TR-FRET experiment, JARID1B was pre-incubated with or without 0.1 uM of test-compounds (containing 1% DMSO final) for 5 min. The enzymatic reactions were initiated by the addition of 500 nM biotinylated H3K4me3 peptide substrate plus 500 uM of 2-OG 25 uM Fe(II) and 2 mM ascorbate. The reaction buffer also contained 50 mM Hepes (pH7.5), 0.01% (v/v) Tween 20, and 50 mM NaCl. The reaction mixture was incubated for 30 min at room temperature before reading on an EnVision plate reader (PerkinElmer, Waltham, Mass.).

Row | Compound | inhibition at 0.1 µM [%]
1 | CN(C)CCNc1nc(-c2nccc3c(=O)[nH]c(COc4ccc(F)c(Cl)c4)nc23)cs1 [Compound 87, 2-((3-chloro-4-fluorophenoxy)methyl)-8-(2-((2-(dimethylamino)ethyl)amino)thiazol-4-yl)pyrido[3,4-d]pyrimidin-4(3H)-one] | ≥ 50
2 | O=c1[nH]c(COc2ccc(Cc3ccccc3)cc2)nc2c(-c3ccccn3)nccc12 [Compound 67, 2-((4-benzylphenoxy)methyl)-8-(pyridin-2-yl)pyrido[3,4-d]pyrimidin-4(3H)-one] | 20 to 50
3 | O=c1[nH]c(COc2ccc(F)c(Cl)c2)nc2c(-c3cscn3)nccc12 [Compound 106, 2-((3-chloro-4-fluorophenoxy)methyl)-8-(thiazol-4-yl)pyrido[3,4-d]pyrimidin-4(3H)-one] | 20 to 50
4 | C[C@@H](O)CNc1nc(-c2nccc3c(=O)[nH]c(COc4ccc(F)c(Cl)c4)nc23)cs1 [Compound 83, (R)-2-((3-chloro-4-fluorophenoxy)methyl)-8-(2-((2-hydroxypropyl)amino)thiazol-4-yl)pyrido[3,4-d]pyrimidin-4(3H)-one] | ≥ 50
5 | O=c1[nH]c(COc2ccc(F)c(Cl)c2)nc2c(-c3csc(NC4CCN(Cc5ccccc5)CC4)n3)nccc12 [Compound 102, 8-(2-((1-benzylpiperidin-4-yl)amino)thiazol-4-yl)-2-((3-chloro-4-fluorophenoxy)methyl) pyrido[3,4-d]pyrimidin-4(3H)-one] | ≥ 50
6 | Nc1nn(-c2nccc3c(=O)[nH]cnc23)cc1-c1cnn(CCN2CCOCC2)c1 [Compound 29, 8-(3-amino-1′-(2-morpholinoethyl)-1H,1′H-[4,4′-bipyrazol]-1-yl)pyrido[3,4-d]pyrimidin-4(3H)-one] | 20 to 50
7 | C[C@@H](O)CNc1nc(-c2nccc3c(=O)[nH]cnc23)cs1 [Compound 40, (R)-8-(2-((2-hydroxypropyl)amino)thiazol-4-yl)pyrido[3,4-d]pyrimidin-4(3H)-one] | ≥ 50
8 | CN(C)CCCNc1nc(-c2nccc3c(=O)[nH]c(COc4ccc(F)c(Cl)c4)nc23)cs1 [Compound 91, 2-((3-chloro-4-fluorophenoxy)methyl)-8-(2-((3-(dimethylamino)propyl)amino)thiazol-4-yl)pyrido[3,4-d]pyrimidin-4(3H)-one] | ≥ 50
9 | CN(C)CCCNc1nc(-c2nccc3c(=O)[nH]cnc23)cs1 [Compound 47, 8-(2-((3-(dimethylamino)propyl)amino)thiazol-4-yl)pyrido[3,4-d]pyrimidin-4(3H)-one] | 20 to 50
10 | O=c1[nH]cnc2c(-c3csc(NCCO)n3)nccc12 [Compound 38, 8-(2-((2-hydroxyethyl)amino)thiazol-4-yl)pyrido[3,4-d]pyrimidin-4(3H)-one] | ≥ 50
11 | CC(c1ccccc1)c1nc2c(-c3csc(NCCO)n3)nccc2c(=O)[nH]1 (stereo not shown) [Compound 141, 8-(2-((2-hydroxyethyl)amino)thiazol-4-yl)-2-(1-phenylethyl)pyrido[3,4-d]pyrimidin-4(3H)-one] | < 20
12 | O=c1[nH]c(COc2ccc(F)c(Cl)c2)nc2c(-c3csc(NCCO)n3)nccc12 [Compound 81, 2-((3-chloro-4-fluorophenoxy)methyl)-8-(2-((2-hydroxyethyl)amino)thiazol-4-yl)pyrido[3,4-d]pyrimidin-4(3H)-one] | ≥ 50
13 | CN1CCN(CCNc2nc(-c3nccc4c(=O)[nH]c(COc5ccc(F)c(Cl)c5)nc34)cs2)CC1 [Compound 89, 2-((3-chloro-4-fluorophenoxy)methyl)-8-(2-((2-(4-methylpiperazin-1-yl)ethyl)amino)thiazol-4-yl)pyrido[3,4-d]pyrimidin-4(3H)-one] | ≥ 50
14 | Nc1nn(-c2nccc3c(=O)[nH]cnc23)cc1-c1cccc(N2CCNCC2)c1 [Compound 20, 8-(3-amino-4-(3-(piperazin-1-yl)phenyl)-1H-pyrazol-1-yl)pyrido[3,4-d]pyrimidin-4(3H)-one] | ≥ 50
15 | O=c1[nH]c(COc2ccc(F)c(Cl)c2)nc2c(-c3csc(NCCc4ccc(Cl)c(Cl)c4)n3)nccc12 [Compound 108, 2-((3-chloro-4-fluorophenoxy)methyl)-8-(2-((3,4-dichlorophenethyl)amino)thiazol-4-yl)pyrido[3,4-d]pyrimidin-4(3H)-one] | < 20
16 | O=c1[nH]c(COc2ccc(Oc3ccccc3)cc2)nc2c(-c3csc(NCCO)n3)nccc12 [Compound 157, 8-(2-((2-hydroxyethyl)amino)thiazol-4-yl)-2-((4-phenoxyphenoxy)methyl) pyrido[3,4-d]pyrimidin-4(3H)-one] | < 20
17 | CN1CCN(Cc2cccc(-c3cn(-c4nccc5c(=O)[nH]cnc45)nc3N)c2)CC1 [Compound 37, 8-(3-amino-4-(3-((4-methylpiperazin-1-yl)methyl)phenyl)-1H-pyrazol-1-yl)pyrido[3,4-d]pyrimidin-4(3H)-one] | < 20
18 | C[C@H](O)CNc1nc(-c2nccc3c(=O)[nH]c(COc4ccc(F)c(Cl)c4)nc23)cs1 [Compound 84, (S)-2-((3-chloro-4-fluorophenoxy)methyl)-8-(2-((2-hydroxypropyl)amino)thiazol-4-yl)pyrido[3,4-d]pyrimidin-4(3H)-one] | ≥ 50
19 | Nc1nn(-c2nccc3c(=O)[nH]cnc23)cc1-c1cccnc1 [Compound 16, 8-(3-amino-4-(pyridin-3-yl)-1H-pyrazol-1-yl)pyrido[3,4-d]pyrimidin-4(3H)-one] | < 20
20 | O=c1[nH]c(COc2ccc(F)cc2)nc2c(-c3csc(NCCO)n3)nccc12 [Compound 125, 2-((4-fluorophenoxy)methyl)-8-(2-((2-hydroxyethyl)amino)thiazol-4-yl)pyrido[3,4-d]pyrimidin-4(3H)-one] | ≥ 50
21 | O=c1[nH]cnc2c(-n3cc(-c4cccc(OCc5ccccc5)c4)cn3)nccc12 [Compound 5, 8-(4-(3-(benzyloxy)phenyl)-1H-pyrazol-1-yl)pyrido[3,4-d]pyrimidin-4(3H)-one] | < 20
22 | Nc1nn(-c2nccc3c(=O)[nH]cnc23)cc1-c1cccc(CO)c1 [Compound 36, 8-(3-amino-4-(3-(hydroxymethyl)phenyl)-1H-pyrazol-1-yl)pyrido[3,4-d]pyrimidin-4(3H)-one] | 20 to 50
23 | N[C@H]1CC[C@@H](Nc2nc(-c3nccc4c(=O)[nH]cnc34)cs2)CC1 [Compound 57, 8-(2-(((1s,4s)-4-aminocyclohexyl)amino)thiazol-4-yl)pyrido[3,4-d]pyrimidin-4(3H)-one] | 20 to 50
24 | O=c1[nH]c(COc2ccc(Cl)cc2Cl)nc2c(-c3csc(NCCO)n3)nccc12 [Compound 135, 2-((2,4-dichlorophenoxy)methyl)-8-(2-((2-hydroxyethyl)amino)thiazol-4-yl)pyrido[3,4-d]pyrimidin-4(3H)-one] | 20 to 50
25 | Nc1ncc(-c2nccc3c(=O)[nH]c(COc4ccc(F)c(Cl)c4)nc23)s1 [Compound 75, 8-(2-aminothiazol-5-yl)-2-((3-chloro-4-fluorophenoxy)methyl) pyrido[3,4-d]pyrimidin-4(3H)-one] | < 20
26 | O=c1[nH]cnc2c(-n3cc(-c4cccnc4)cn3)nccc12 [Compound 12, 8-(4-(pyridin-3-yl)-1H-pyrazol-1-yl)pyrido[3,4-d]pyrimidin-4(3H)-one] | < 20
27 | Nc1nc(-c2nccc3c(=O)[nH]c(CCc4ccc(F)cc4)nc23)cs1 [Compound 165, 8-(2-aminothiazol-4-yl)-2-(4-fluorophenethyl)pyrido[3,4-d]pyrimidin-4(3H)-one] | 20 to 50
28 | O=c1[nH]c(CCc2ccccc2)nc2c(-c3csc(NC4CCN(Cc5ccccc5)CC4)n3)nccc12 [Compound 164, 8-(2-((1-benzylpiperidin-4-yl)amino)thiazol-4-yl)-2-phenethylpyrido[3,4-d]pyrimidin-4(3H)-one] | ≥ 50
